# Data published in patent US7742877B1, “Methods, apparatus and computer program products for formulating culture media” (Becton, Dickinson & Company, priority 1999, dated 2010).
# Tests used:
# [1] = system: bacterial cells genetically engineered to produce a heterologous protein of interest; experiment: Protein production by bacterial cells grown in culture medium containing a test peptide (QSAR example, exemplary data); type: cell-based; details: peptide included in culture medium of bacterial cells; exemplary (hypothetical) data
# From the text: The present invention may be used to identify a peptide to include as a component of a culture medium. The culture medium may be used to culture bacterial cells genetically engineered to produce a heterologous protein of interest. Accordingly, it would be desirable to identify a peptide which when included in a culture medium will enhance protein production by bacterial cells grown in the culture medium (i.e., to satisfy a test requirement).
# In this example, eight test peptides are selected from a tetrapeptide library: Asp-Lys-Ala-His (SEQ. ID. NO:23), Asp-Trp-Pro-Ala (SEQ. ID. NO:24), Glu-Ser-Met-His (SEQ. ID. NO:25), Gly-Val-Asn-Glu (SEQ. ID. NO:26), His-Glu-Asp-Val (SEQ. ID. NO:27), Glu-Thr-Gly-Ser (SEQ. ID. NO:28), His-Tyr-Gly-Val (SEQ. ID. NO:29, and Asp-Phe-Gly-Val (SEQ. ID. NO:30); Table 3). The test peptides may be selected from the library by any means known in the art. The values for three parameters (molecular weight, total charge, and mlogp, i.e., hydrophobicity) may be determined for each of the eight peptides. The indicia of the property, in this example a particular biological activity (i.e., protein production), may be determined for the eight peptides as well.
# [2] = system: mammalian hybridoma cells producing and secreting antibodies; experiment: Antibody production by hybridoma cells cultured in medium containing a test peptide (nearest neighbor example, model data); type: cell-based; details: for Biol. Act. (antibody production): training set peptide added to hybridoma culture medium, model data; for Observed Activity (antibody production): candidate peptides, (hypothetical) biological activities
# From the text: One particular, and preferred, method of identifying compounds based on a distance function is nearest neighbor analysis. This method can be illustrated using the following simplified example with model data.
# According to this illustrative example, the present invention can be used to identify a peptide as a culture medium component, e.g., for mammalian hybridoma cells producing and secreting antibodies. In particular, it is desirable to identify peptides, which when added to culture medium, will promote antibody production by hybridoma cells at a level greater than a test requirement. Four test peptides (Asp-Lys-Ala-His (SEQ. ID NO:23), Asp-Trp-Pro-Ala (SEQ. ID NO:24), Glu-Ser-Met-His (SEQ. ID NO:25), Gly-Val-Asn-Glu (SEQ. ID NO:26); i.e., a training set) may be selected from a peptide library as described above with respect to the QSAR example. Values to describe the various parameters of the peptides, for example, hydrophobicity (i.e., mlogp), molecular weight, and total charge may be calculated for each peptide (Table 5). Each peptide may be added to hybridoma culture medium and antibody production (i.e., biological activity) may be measured for the cells cultured in each culture medium (values shown in Table 5).
# The peptides in the candidate set will then be assigned predicted indicia of the property based the closest peptide in the training set (Table 9).
substance,measurement,setting,value
Gly-Val-Asn-Glu (GVNE),Biol. Act. (protein production),[1],14.4
same,Biol. Act. (antibody production),[2],14.4
Asp-Trp-Pro-Ala (DWPA),Biol. Act. (protein production),[1],25.0
same,Biol. Act. (antibody production),[2],25.0
Glu-Thr-Gly-Ser (ETGS),Biol. Act. (protein production),[1],10.2
same,Observed Activity (antibody production),[2],10.2
His-Tyr-Gly-Val (HYGV),Biol. Act. (protein production),[1],23.6
same,Observed Activity (antibody production),[2],23.6
Asp-Lys-Ala-His (DKAH),Biol. Act. (protein production),[1],15.0
same,Biol. Act. (antibody production),[2],15.0
His-Glu-Asp-Val (HEDV),Biol. Act. (protein production),[1],18.5
same,Observed Activity (antibody production),[2],18.5
Asp-Phe-Gly-Val (DFGV),Biol. Act. (protein production),[1],22.0
same,Observed Activity (antibody production),[2],22.0
Glu-Ser-Met-His (ESMH),Biol. Act. (protein production),[1],19.3
same,Biol. Act. (antibody production),[2],19.3
